28 compounds from patent US7868205B2, “Inhibitors of histone deacetylase” (MethylGene Inc., priority 2003, dated 2011) can be followed below.

For the assay, the target named is human HDAC-1 (Homo sapiens, UniProt Q13547). Kind of assay: Inhibition of histone deacetylase enzymatic (HDAC-1) activity. The assay is classed as biochemical. How it is done:
The following protocol was used to assay the compounds of the invention.
The mixture was pre-incubated for 5 minutes at room temperature. The reaction was started by bringing the temperature to 37° C. and adding 16 μl substrate.

The mark [1] stands for this setting: Table 6A, comparative data for planar substituent, read-out: HDAC-1 activity (μm).
The mark [2] stands for this setting: Table 6B, comparative data for planar substituent, read-out: HDAC-1 Activity.
Where [3] appears, read: Table 5, Boc-Lys(Ac)-AMC substrate, 37° C., 20 minutes, read-out: HDAC-1 (μM), inhibition of histone deacetylase.

Molecules are shown by their SMILES. Where two headings read alike, the source gives them in different places.

Chain of human HDAC-1 (Q13547 whole entry): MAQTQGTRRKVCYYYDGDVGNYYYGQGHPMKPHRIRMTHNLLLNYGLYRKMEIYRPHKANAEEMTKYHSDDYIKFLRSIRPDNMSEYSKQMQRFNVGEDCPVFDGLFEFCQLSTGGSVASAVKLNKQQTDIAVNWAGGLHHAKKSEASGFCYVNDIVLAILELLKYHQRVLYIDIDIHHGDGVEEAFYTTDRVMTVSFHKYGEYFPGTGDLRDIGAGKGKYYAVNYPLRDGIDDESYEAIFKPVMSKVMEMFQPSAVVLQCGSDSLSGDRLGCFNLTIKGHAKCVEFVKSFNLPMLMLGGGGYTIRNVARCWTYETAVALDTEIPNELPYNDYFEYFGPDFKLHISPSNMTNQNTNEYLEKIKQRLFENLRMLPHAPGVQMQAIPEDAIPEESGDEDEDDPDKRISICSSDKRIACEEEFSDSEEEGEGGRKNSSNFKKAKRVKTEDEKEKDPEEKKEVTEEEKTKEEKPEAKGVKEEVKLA

On to `COc1ccc(NCc2ccc(C(=O)Nc3cc(C(F)(F)F)ccc3N)cc2)cc1OC` [A, reference compound], for which the IC50 under setting [1] was in the range of 1 to 20 µM.

In the case of `COc1ccc(NCc2ccc(C(=O)Nc3ccccc3N)cc2)cc1OC` [AAA, reference compound], the IC50 reads like this: under setting [1], < 1 µM; under setting [2], < 1 µM. As to `COc1ccc(NCc2ccc(C(=O)Nc3cc(F)c(F)cc3N)cc2)cc1OC` [B, N-(2-amino-4,5-difluorophenyl)-4-{[(3,4-dimethoxyphenyl)amino]methyl}benzamide, reference compound], under setting [3], the IC50 lay within 1 to 20 µM. On the same count and under the same terms, the result for `COc1ccc(NCc2ccc(C(=O)Nc3cc(-c4cccs4)ccc3[N+](=O)[O-])cc2)cc1OC` [Cpd 5, 4-[(3,4-dimethoxy-phenylamino)-methyl]-N-(2-nitro-5-thiophen-2-yl-phenyl)-benzamide] reads > 20 µM; that for `COc1ccc(NCc2ccc(C(=O)Nc3cc(-c4cccs4)ccc3N)cc2)cc1OC` [Cpd 6, N-[2-amino-5-(2-thienyl)phenyl]-4{[(3,4-dimethoxyphenyl)amino]methyl}benzamide], < 1 µM.

With `COc1ccc(NCc2ccc(C(=O)Nc3cc(-c4cccs4)ccc3N)cc2)cc1F` [Cpd 12, N-[2-amino-5-(2-thienyl)phenyl]-4{[(3-fluoro-4-methoxyphenyl)amino]methyl}benzamide], the IC50 under setting [3] is < 1 µM.

In the case of `COc1ccc(NCc2ccc(C(=O)Nc3ccc(-c4cccs4)cc3[N+](=O)[O-])cc2)cc1OC` [Cpd 15, 4-[(3,4-dimethoxy-phenylamino)-methyl]-N-(2-nitro-4-thiophen-2-yl-phenyl)-benzamide], the IC50 under setting [3] was > 20 µM. Same read-out and setting: with `COc1ccc(NCc2ccc(C(=O)Nc3ccc(-c4cccs4)cc3N)cc2)cc1OC` [Cpd 16, N-[2-amino-4-(2-thienyl)phenyl]-4-{[(3,4-dimethoxyphenyl)amino]methyl}benzamide] the figure was 1 to 20 µM; with `COc1ccc(NCc2ccc(C(=O)Nc3ccc(Br)cc3N)cc2)cc1OC` [Cpd 18, N-(2-amino-4-bromophenyl)-4-{[(3,4-dimethoxyphenyl)amino]methyl}benzamide], 1 to 20 µM. The same measure, in the same setting: the result for `COc1cc(CN2CCc3ccc(C(=O)Nc4cc(-c5cccs5)ccc4N)cc32)cc(OC)c1OC` [Cpd 23, N-[2-amino-5-(2-thienyl)phenyl]-1-(3,4,5-trimethoxybenzyl)indoline-6-carboxamide] reads < 1 µM; that for `COc1cc(NCc2ccc3oc(C(=O)Nc4cc(-c5cccs5)ccc4N)cc3c2)cc(OC)c1OC` [Cpd 29, N-[2-amino-5-(2-thienyl)phenyl]-5-{[(3,4,5-trimethoxyphenyl)amino]methyl}-1-benzofuran-2-carboxamide], < 1 µM. With `COc1ccc(NCc2ccc(C(=O)Nc3cccc(-c4cccs4)c3)cc2)cc1OC` [Cpd 32, 4-{[(3,4-dimethoxyphenyl)amino]methyl}-N-[3-(2-thienyl)phenyl]benzamide], the IC50 under setting [3] is > 20 µM.

Turning to `COc1ccc(NCc2ccc(C(=O)Nc3cc(Cl)c(F)cc3N)cc2)cc1OC` [Cpd 35, N-(2-Amino-5-chloro-4-fluoro-phenyl)-4-[(3,4-dimethoxy-phenylamino)-methyl]-benzamide], the IC50 under setting [3] lay in the range of 1 to 20 µM. Consider `COc1ccc(NCc2ccc(C(=O)Nc3cc(Cl)c(Cl)cc3N)cc2)cc1OC` [Cpd 36, N-(2-Amino-4,5-dichloro-phenyl)-4-[(3,4-dimethoxy-phenylamino)-methyl]-benzamide], for which, under setting [3], the IC50 is 1 to 20 µM.

Turning to `Nc1ccc(-c2cccs2)cc1NC(=O)c1ccc(CNc2nccc(-c3cccnc3)n2)cc1` [Cpd 43, N-[2-amino-5-(2-thienyl)phenyl]-4{[(4-pyridin-3-ylpyrimidin-2-yl)amino]methyl}benzamide], the IC50 under setting [3] was < 1 µM. Same read-out and setting: with `CN(C)CCOc1ccc2nc(SCc3ccc(C(=O)Nc4cc(-c5cccs5)ccc4N)cc3)[nH]c2c1` [Cpd 50, N-[2-amino-5-(2-thienyl)phenyl]-4[({6-[2-(dimethylamino)ethoxy]-1H-benzimidazol-2-yl}thio)methyl]benzamide] the figure was < 1 µM.

With `COc1ccc(NCc2ccc(C(=O)Nc3csc(-c4ccccc4)c3N)cc2)cc1OC` [Cpd 61, N-(4-amino-5-phenyl-3-thienyl)-4-{[(3,4-dimethoxyphenyl)amino]methyl}benzamide], the IC50 under setting [3] is > 20 µM. On the same count and under the same terms, the result for `COc1ccc(NCc2ccc(C(=O)Nc3csc(-c4cccs4)c3N)cc2)cc1OC` [Cpd 62, N-(3-amino-2,2′-bithien-4-yl)-4-{[(3,4-dimethoxyphenyl)amino]methyl}benzamide] reads > 20 µM. Same read-out and setting: with `COc1cc(NCc2ccc(/C=C/C(=O)Nc3cc(-c4cccs4)ccc3N)cc2)cc(OC)c1OC` [Cpd 67, trans-N-[2-amino-5-(2-thienyl)phenyl]-3-(4-{[(3,4,5-trimethoxyphenyl)amino]methyl}phenyl)acrylamide] the figure was < 1 µM.

With `CCCCc1ccc(N)c(NC(=O)c2ccc(CNc3ccc(OC)c(OC)c3)cc2)c1` [Cpd 68, N-(2-amino-5-butylphenyl)-4-{[(3,4-dimethoxyphenyl)amino]methyl}benzamide], the IC50 under setting [3] fell in the range of 1 to 20 µM. Same read-out and setting: with `CCCCc1ccc(N)c(NC(=O)c2ccc(C)cc2)c1` [Cpd 69, N-(2-amino-5-butylphenyl)-4-methylbenzamide] the figure was 1 to 20 µM. Regarding `CCCCc1ccc(NC(=O)c2ccc(C)cc2)c(N)c1` [Cpd 71, N-(2-amino-4-butylphenyl)-4-methylbenzamide], the IC50 under setting [3] is > 20 µM.

As for `COc1ccc(NCc2ccc(C(=O)Nc3cc(C#CCO)ccc3N)cc2)cc1OC` [Cpd 76, N-[2-amino-5-(3-hydroxyprop-1-yn-1-yl)phenyl]-4-{[(3,4-dimethoxyphenyl)amino]methyl}benzamide], the IC50 under setting [3] is < 1 µM.

Regarding `COc1ccc(NCc2ccc(C(=O)Nc3cc(Br)ccc3N)cc2)cc1OC` [Cpd 87, N-(2-amino-5-bromophenyl)-4-{[(3,4-dimethoxyphenyl)amino]methyl}benzamide], the IC50 under setting [3] lay in the range of 1 to 20 µM.

Take `COc1ccc(NCc2ccc(C(=O)Nc3cc(/C=C/C(N)=O)ccc3N)cc2)cc1OC` [Cpd 88, N-{2-amino-5-[(1E)-3-amino-3-oxoprop-1-en-1-yl]phenyl}-4-{[(3,4-dimethoxyphenyl)amino]methyl}benzamide]: under setting [3], the IC50 was 1 to 20 µM.

With `COc1ccc(NCc2ccc(C(=O)Nc3cc(-c4ccoc4)ccc3N)cc2)cc1OC` [Cpd 91, N-[2-amino-5-(3-furanyl)phenyl]-4-{[(3,4-dimethoxyphenyl)amino]methyl}benzamide], the IC50 was < 1 µM. Turning to `COc1ccc(NCc2ccc(C(=O)Nc3c(N)cccc3N)cc2)cc1OC` [Cpd 94, N-[2,6-diaminophenyl]-4-{[(3,4-dimethoxyphenyl)amino]methyl}benzamide], the IC50 under setting [3] lay within 1 to 20 µM. Take `COc1cc(NCc2ccc(/C=C/C(=O)Nc3ccccc3N)cc2)cc(OC)c1OC` [QQ, reference compound]: under setting [2], the IC50 lay in the range of 1 to 20 µM.
